Legend:
[1] = test system: K562; test: Cytotoxicity against human K562 cells after 24 hrs by MTT assay; format: functional, cell-based; conditions: K562, 24 h
[2] = test system: COLO 205; test: Cytotoxicity against human COLO205 cells after 24 hrs by MTT assay; format: functional, cell-based; conditions: COLO 205, 24 h
[3] = test system: MDA-MB-231; test: Cytotoxicity against human MDA-MB-231 cells after 24 hrs by MTT assay; format: functional, cell-based; conditions: MDA-MB-231, 24 h
[4] = target: T1, NAD-dependent protein deacetylase sirtuin-1 (Homo sapiens) (UniProt Q96EB6); test: Inhibition of human Sirt1 at 10 uM using fluorophore-labelled peptide as substrate measured after 15 mins by fluorescence assay relative to control
T1 sequence (whole entry): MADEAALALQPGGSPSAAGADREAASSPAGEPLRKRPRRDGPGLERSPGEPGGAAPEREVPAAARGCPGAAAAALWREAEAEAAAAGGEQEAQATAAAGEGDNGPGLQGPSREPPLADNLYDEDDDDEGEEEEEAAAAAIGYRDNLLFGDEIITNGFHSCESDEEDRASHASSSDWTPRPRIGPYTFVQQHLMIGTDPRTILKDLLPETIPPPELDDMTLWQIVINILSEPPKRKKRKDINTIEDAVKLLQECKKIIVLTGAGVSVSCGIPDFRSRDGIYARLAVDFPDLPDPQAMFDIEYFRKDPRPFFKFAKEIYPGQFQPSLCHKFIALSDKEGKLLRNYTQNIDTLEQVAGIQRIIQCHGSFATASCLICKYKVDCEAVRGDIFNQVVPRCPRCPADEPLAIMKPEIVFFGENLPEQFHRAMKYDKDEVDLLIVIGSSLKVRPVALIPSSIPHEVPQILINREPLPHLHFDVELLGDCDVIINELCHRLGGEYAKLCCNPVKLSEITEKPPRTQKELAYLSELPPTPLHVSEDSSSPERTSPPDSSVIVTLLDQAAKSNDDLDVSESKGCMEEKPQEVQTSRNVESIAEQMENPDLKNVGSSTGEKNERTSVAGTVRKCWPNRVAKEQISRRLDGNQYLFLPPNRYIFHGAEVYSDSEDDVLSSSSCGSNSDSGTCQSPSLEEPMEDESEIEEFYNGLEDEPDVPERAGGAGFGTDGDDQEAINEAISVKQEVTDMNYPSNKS

Row | inhibition [4] | Structure (SMILES) | IC50 [1] | IC50 [2] | IC50 [3]
1 |  | Cc1ccc(C(=O)NC(Cc2ccccc2)C(=O)N2CCN(C3=Nc4ccccc4Sc4ccccc43)CC2)cn1 (configuration not stated) | 39 µM | 34 µM | 54 µM
2 |  | CCN(CC)CCNC(=O)c1c(C)[nH]c(/C=C2\C(=O)Nc3ccc(F)cc32)c1C [SUNITINIB] | 14 µM | 8 µM | 32 µM
3 |  | Cc1ccc(Br)cc1C(=O)NC(Cc1ccccc1)C(=O)N1CCN(C2=Nc3ccccc3Sc3ccccc32)CC1 (configuration not stated) | 27 µM | 16 µM | 49 µM
4 |  | COC(=O)CCCC(=O)NC(Cc1ccccc1)C(=O)N1CCN(C2=Nc3ccccc3Sc3ccccc32)CC1 (configuration not stated) | 19 µM | 28 µM | 64 µM
5 |  | O=C(Cc1ccc2c(c1)OCO2)NC(Cc1ccccc1)C(=O)N1CCN(C2=Nc3ccccc3Sc3ccccc32)CC1 (configuration not stated) | 35 µM | 24 µM | 52 µM
6 |  | CC(=O)CCCC(=O)NC(Cc1ccccc1)C(=O)N1CCN(C2=Nc3ccccc3Sc3ccccc32)CC1 (configuration not stated) | 32 µM | 33 µM | 52 µM
7 |  | Cc1ccc(C(=O)NC(Cc2ccccc2)C(=O)N2CCN(C3=Nc4ccccc4Sc4ccccc43)CC2)cc1I (configuration not stated) | 36 µM | 45 µM | 59 µM
8 |  | O=C(NC(Cc1ccccc1)C(=O)N1CCN(C2=Nc3ccccc3Sc3ccccc32)CC1)c1ccc(I)cc1 (configuration not stated) | 26 µM | 28 µM | 55 µM
9 |  | CCc1ccc(C(=O)NC(Cc2ccccc2)C(=O)N2CCN(C3=Nc4ccccc4Sc4ccccc43)CC2)cc1 (configuration not stated) | 21 µM | 25 µM | 44 µM
10 |  | Cc1ccc(C(=O)NC(Cc2ccccc2)C(=O)N2CCN(C3=Nc4ccccc4Sc4ccccc43)CC2)c(C)c1 (configuration not stated) | 35 µM | 40 µM | 37 µM
11 | 62% | O=C(NC(Cc1ccccc1)C(=O)N1CCN(C2=Nc3ccccc3Sc3ccccc32)CC1)c1cnccn1 (configuration not stated) | 16 µM | 15 µM | 38 µM
12 | 44% | CC(C)(C(=O)NC(Cc1ccccc1)C(=O)N1CCN(C2=Nc3ccccc3Sc3ccccc32)CC1)c1ccc(C(=O)C2CC2)cc1 (configuration not stated) | 14 µM | 17 µM | 34 µM
13 |  | CS(=O)(=O)c1ccc(CC(=O)NC(Cc2ccccc2)C(=O)N2CCN(C3=Nc4ccccc4Sc4ccccc43)CC2)cc1 (configuration not stated) | 28 µM | 32 µM | 56 µM
14 |  | N#Cc1ccc(C(=O)NC(Cc2ccccc2)C(=O)N2CCN(C3=Nc4ccccc4Sc4ccccc43)CC2)cc1 (configuration not stated) | 24 µM | 29 µM | 61 µM
15 | 71% | O=C(NC(Cc1ccccc1)C(=O)N1CCN(C2=Nc3ccccc3Sc3ccccc32)CC1)c1ccc(OC(F)F)cc1 (configuration not stated) | 12 µM | 10 µM | 39 µM
16 |  | CCOC(=O)CCCC(=O)NC(Cc1ccccc1)C(=O)N1CCN(C2=Nc3ccccc3Sc3ccccc32)CC1 (configuration not stated) | 20 µM | 36 µM | 48 µM
17 | 54% | Cc1ccc(C)c(C(=O)NC(Cc2ccccc2)C(=O)N2CCN(C3=Nc4ccccc4Sc4ccccc43)CC2)c1 (configuration not stated) | 16 µM | 12 µM | 34 µM
18 |  | O=C(CCc1cccc(Cl)c1)NC(Cc1ccccc1)C(=O)N1CCN(C2=Nc3ccccc3Sc3ccccc32)CC1 (configuration not stated) | 27 µM | 16 µM | 59 µM
19 | 51% | O=C(NC(Cc1ccccc1)C(=O)N1CCN(C2=Nc3ccccc3Sc3ccccc32)CC1)c1ccoc1 (configuration not stated) | 17 µM | 14 µM | 37 µM

Source: ChEMBL document CHEMBL4052801, “Design, synthesis and anticancer activity of N-(1-(4-(dibenzo[b,f][1,4]thiazepin-11-yl)piperazin-1-yl)-1-oxo-3-phenylpropan-2-yl derivatives” (Bioorg Med Chem Lett, 2017)
